pIC50: −log10 of the molar value.
Experiments:
[1] = target: T1, H+,K+-ATPase (gastric mucous membrane microsomal fraction) (Sus scrofa, UniProt P19156); test: Proton potassium-adenosine triphosphatase (H+,K+-ATPase) inhibitory activity test; format: biochemical; settings: swine gastric microsomal fraction, pH 6.5, 37° C., 30 min preincubation
T1 construct: The obtained microsomal fraction was used as a proton, potassium-adenosine triphosphatase standard product; from tissue; host or cells: swine stomach, gastric mucous membrane microsomal fraction
Procedure: Proton Potassium-Adenosine Triphosphatase (H^+,K^+-ATPase) Inhibitory Activity Test According to the method [Biochim. Biophys. Acta, 728, 31 (1983)] of Wallmark et al., a gastric mucous membrane microsomal fraction was prepared from the stomach of swine. First, the stomach was removed, washed with tap water, immersed in 3 mol/L brine, and the surface of the mucous membrane was wiped with a paper towel. The gastric mucous membrane was detached, chopped, and homogenized in a 0.25 mol/L saccharose solution (pH 6.8) containing 1 mmol/L EDTA and 10 mmol/L tris-hydrochloric acid using polytron (Kinematica). The obtained homogenate was centrifuged at 20,000×g for 30 min and the supernatant was centrifuged at 100,000×g for 90 min. The precipitate was suspended in 0.25 mol/L saccharose solution, superimposed on a 0.25 mol/L saccharose solution containing 7.5% Ficoll, and centrifuged at 100,000×g for 5 hr. The fraction containing the interface between the both layers was recovered, and centrifugally washed with 0.25 mol/L saccharose solution. The obtained microsomal fraction was used as a proton, potassium-adenosine triphosphatase standard product. […] The enzyme reaction was started by adding 5 μL of a 2 mmol/L-adenosine triphosphate tris salt solution (50 mmol/L HEPES-tris buffer (5 mmol/L magnesium chloride, pH 6.5)). The enzyme reaction was carried out at 37° C. for 20 min, and 15 μL of a malachite green solution (0.12% malachite green solution in sulfuric acid (2.5 mol/L), 7.5% ammonium molybdate and 11% Tween 20 were mixed at a ratio of 100:25:2) was added to quench the reaction. […] In addition, the amount of the inorganic phosphoric acid in the reaction solution free of potassium chloride was measured in the same manner, which was subtracted from the inorganic phosphoric acid amount in the presence of potassium chloride to determine the proton, potassium-adenosine triphosphatase activity.

HepG2 cells = test: Intracellular ATP content in HepG2 cells (cytotoxicity); format: cell-based, human; settings: HepG2, 30 μM, culture for one day, relative value to control, ATPLite, n≧3 average
Procedure: Human liver cancer-derived cell line HepG2 (ATCC No. HB-8065) was passaged using Dulbecco's Modified Eagle medium (DMEM; Invitrogen) containing 10% fetal bovine serum (FBS; TRACE SCIENTIFIC LTD.), 1 mmol/L sodium pyruvate (Invitrogen), 2 mmol/L L-glutamine (Invitrogen), 50 IU/mL penicillin (Invitrogen) and 50 μg/mL streptomycin (Invitrogen) at 5% CO2, 37° C. The test reagent was prepared with DMSO to 10 mM, and further diluted with DMEM medium containing 0.5% FBS, 1 mmol/L sodium pyruvate, 2 mmol/L L-glutamine, 50 IU/mL penicillin and 50 μg/mL streptomycin to a final concentration of DMSO of 0.1%. HepG2 (2×10^4 cells/well) was cultured on a 96 well white plate (Costar) with the test reagent at 5% CO2, 37° C. After culture for one day, the intracellular ATP content was measured using ATPLite™ (PerkinElmer Life Sciences). The results are shown in Table 24 (n≧3, average value±SD) as a relative value (%) to control (without addition of drug) at 30 μM.

T1 sequence (P19156 2-1034 limits assumed): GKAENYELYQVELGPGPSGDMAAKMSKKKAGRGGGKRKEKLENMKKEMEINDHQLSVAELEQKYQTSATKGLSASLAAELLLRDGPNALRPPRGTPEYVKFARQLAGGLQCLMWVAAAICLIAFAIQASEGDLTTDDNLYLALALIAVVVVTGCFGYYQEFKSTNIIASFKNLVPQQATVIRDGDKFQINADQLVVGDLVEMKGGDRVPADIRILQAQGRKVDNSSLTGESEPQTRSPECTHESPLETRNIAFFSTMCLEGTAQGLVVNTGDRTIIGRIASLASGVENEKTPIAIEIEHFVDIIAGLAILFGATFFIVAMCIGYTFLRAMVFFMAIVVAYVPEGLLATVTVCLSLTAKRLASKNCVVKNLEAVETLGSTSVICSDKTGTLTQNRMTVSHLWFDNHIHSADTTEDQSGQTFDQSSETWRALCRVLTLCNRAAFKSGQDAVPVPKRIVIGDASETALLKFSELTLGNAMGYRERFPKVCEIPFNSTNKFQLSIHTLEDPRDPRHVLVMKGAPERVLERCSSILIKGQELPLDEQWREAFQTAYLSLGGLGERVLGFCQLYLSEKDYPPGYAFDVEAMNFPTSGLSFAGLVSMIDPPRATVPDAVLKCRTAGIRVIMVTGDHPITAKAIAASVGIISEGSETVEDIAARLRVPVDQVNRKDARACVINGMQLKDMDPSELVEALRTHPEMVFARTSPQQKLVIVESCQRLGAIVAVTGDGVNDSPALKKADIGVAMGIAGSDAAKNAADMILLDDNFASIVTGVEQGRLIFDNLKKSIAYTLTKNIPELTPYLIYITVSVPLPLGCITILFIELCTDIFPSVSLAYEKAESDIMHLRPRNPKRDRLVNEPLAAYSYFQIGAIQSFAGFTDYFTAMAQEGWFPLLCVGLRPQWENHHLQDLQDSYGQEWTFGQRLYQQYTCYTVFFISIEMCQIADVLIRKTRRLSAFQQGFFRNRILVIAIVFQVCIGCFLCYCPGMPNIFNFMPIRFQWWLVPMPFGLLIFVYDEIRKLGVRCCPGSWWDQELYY
T1 sequence (P18434 whole entry partner): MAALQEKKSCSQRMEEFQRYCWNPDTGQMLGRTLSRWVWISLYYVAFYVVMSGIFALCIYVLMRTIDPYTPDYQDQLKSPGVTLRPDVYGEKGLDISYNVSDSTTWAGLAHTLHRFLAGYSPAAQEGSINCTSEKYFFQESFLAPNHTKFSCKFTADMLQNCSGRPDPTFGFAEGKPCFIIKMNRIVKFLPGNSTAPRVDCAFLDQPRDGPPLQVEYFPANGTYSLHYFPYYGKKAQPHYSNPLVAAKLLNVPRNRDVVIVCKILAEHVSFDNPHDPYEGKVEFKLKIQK

pIC50 [1] | SMILES | ATP content (%, 30 μM) (HepG2 cells) [%]
7.32 | CNCc1cc(-c2ccccc2F)n(S(=O)(=O)c2ccc(C)nc2)c1.Cl.Cl [Example 44, 1-{5-(2-fluorophenyl)-1-[(6-methylpyridin-3-yl)sulfonyl]-1H-pyrrol-3-yl}-N-methylmethanamine dihydrochloride] | 78.5
7.66 | CNCc1cc(-c2ccccc2F)n(S(=O)(=O)c2cccnc2)c1.O=C(O)/C=C/C(=O)O [Example 8, 1-[5-(2-fluorophenyl)-1-(pyridin-3-ylsulfonyl)-1H-pyrrol-3-yl]-N-methylmethanamine fumarate] | 87.9
8.05 | CNCc1cc(-c2ccc(F)cc2F)n(S(=O)(=O)c2cccnc2)c1.Cl.Cl [Example 32, 1-[5-(2,4-difluorophenyl)-1-(pyridin-3-ylsulfonyl)-1H-pyrrol-3-yl]-N-methylmethanamine dihydrochloride] | 53.6
6.68 | CNCc1cc(-c2cccnc2F)n(S(=O)(=O)c2cccnc2)c1.O=C(O)/C=C/C(=O)O [Example 74, 1-[5-(2-fluoropyridin-3-yl)-1-(pyridin-3-ylsulfonyl)-1H-pyrrol-3-yl]-N-methylmethanamine fumarate] | 95.2
7.19 | CNCc1cc(-c2ccccc2)n(S(=O)(=O)c2cnc(NC)nc2)c1.Cl [Example 5, N-methyl-1-{1-[2-(methylamino)pyrimidin-5-ylsulfonyl]-5-phenyl-1H-pyrrol-3-yl}methanamine hydrochloride] | 73.9
7.39 | CNCc1cc(-c2cscc2C)n(S(=O)(=O)c2cccnc2)c1.Cl.Cl [Example 29, N-methyl-1-[5-(4-methyl-3-thienyl)-1-(pyridin-3-ylsulfonyl)-1H-pyrrol-3-yl]methanamine dihydrochloride] | 71.5
7.24 | CNCc1cc(-c2ccccc2C)n(S(=O)(=O)c2cccnc2)c1.O=C(O)/C=C/C(=O)O [Example 47, N-methyl-1-[5-(2-methylphenyl)-1-(pyridin-3-ylsulfonyl)-1H-pyrrol-3-yl]methanamine fumarate] | 81.8
7.89 | CNCc1cc(-c2ccccc2)n(S(=O)(=O)c2ccc(OC)nc2)c1.Cl [Example 2, 1-{1-[(6-methoxypyridin-3-yl)sulfonyl]-5-phenyl-1H-pyrrol-3-yl}-N-methylmethanamine hydrochloride] | 45.2
7.37 | CNCc1cn(S(=O)(=O)c2cccnc2)c(-c2ccccc2)c1F.Cl.Cl [Example 41, 1-[4-fluoro-5-phenyl-1-(pyridin-3-ylsulfonyl)-1H-pyrrol-3-yl]-N-methylmethanamine dihydrochloride] | 86.7
7.47 | CNCc1cc(-c2ccccc2)n(S(=O)(=O)c2cnc(C)nc2)c1.Cl.Cl [Example 7, N-methyl-1-[1-(2-methylpyrimidin-5-ylsulfonyl)-5-phenyl-1H-pyrrol-3-yl]-methanamine dihydrochloride] | 76.5

— US7498337B2, “Acid secretion inhibitor” (Takeda Pharmaceutical Company Limited, priority 2005, dated 2009)
